One may read the Ki as a measure of affinity in units of concentration, obtained from inhibition or displacement.

Counter-ions that a name gives are not always drawn. Like-named read-outs stand apart in the source and are kept apart here.

Our source for the Ki values is patent US9738655B2, “Tetrahydroisoquinolines containing substituted azoles as factor XIa inhibitors” (BRISTOL-MYERS SQUIBB COMPANY, priority 2013, dated 2017).

Assay [1] concerns the target purified human Factor XIa (Homo sapiens (Human), UniProt P03951). The assay can be described thus: Factor XIa enzyme inhibition assay (chromogenic substrate S-2366).
Protocol: The effectiveness of compounds of the present invention as inhibitors of the coagulation Factors XIa, VIIa, IXa, Xa, XIIa, plasma kallikrein or thrombin, can be determined using a relevant purified serine protease, respectively, and an appropriate synthetic substrate. The rate of hydrolysis of the chromogenic or fluorogenic substrate by the relevant serine protease was measured both in the absence and presence of compounds of the present invention. […] A decrease in the rate of absorbance or fluorescence change in the presence of inhibitor is indicative of enzyme inhibition. […] The results of this assay are expressed as the inhibitory constant, Ki.
Values of Ki were determined by allowing the protease to react with the substrate in the presence of the inhibitor.
The target of assay [2] is purified human plasma kallikrein (Homo sapiens (Human), UniProt P03952). The assay can be described thus: Plasma kallikrein enzyme inhibition assay (chromogenic substrate S-2302). In kind it is biochemical.
Chain of purified human plasma kallikrein (P03952 391-638): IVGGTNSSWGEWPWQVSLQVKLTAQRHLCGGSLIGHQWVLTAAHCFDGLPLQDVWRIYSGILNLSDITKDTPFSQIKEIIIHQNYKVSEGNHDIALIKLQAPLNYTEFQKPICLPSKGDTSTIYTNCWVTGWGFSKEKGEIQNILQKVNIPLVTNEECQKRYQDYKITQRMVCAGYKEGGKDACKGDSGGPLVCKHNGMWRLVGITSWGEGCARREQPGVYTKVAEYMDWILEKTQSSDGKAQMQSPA
Chain of purified human plasma kallikrein (P03952 20-390 partner): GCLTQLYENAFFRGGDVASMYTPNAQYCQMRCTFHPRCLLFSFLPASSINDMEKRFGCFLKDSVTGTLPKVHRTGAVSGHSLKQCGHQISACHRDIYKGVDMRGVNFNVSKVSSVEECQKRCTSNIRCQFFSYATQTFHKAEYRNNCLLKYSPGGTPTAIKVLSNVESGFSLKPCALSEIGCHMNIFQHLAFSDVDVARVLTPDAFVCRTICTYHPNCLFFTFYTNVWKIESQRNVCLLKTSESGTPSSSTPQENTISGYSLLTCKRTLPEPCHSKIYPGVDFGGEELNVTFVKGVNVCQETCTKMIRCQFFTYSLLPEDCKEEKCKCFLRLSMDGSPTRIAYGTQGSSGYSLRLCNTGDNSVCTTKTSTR
[3] abbreviates: read-out: Factor XIa Ki, measured at 25° C.
Setting [4] is: measured at 25° C. (no asterisk).
[5] abbreviates: read-out: Factor XIa Ki, measured at 25° C., TFA salt.
[6] abbreviates: measured at 25° C. (no asterisk), TFA salt.

Chain of purified human Factor XIa (P03951 388-625): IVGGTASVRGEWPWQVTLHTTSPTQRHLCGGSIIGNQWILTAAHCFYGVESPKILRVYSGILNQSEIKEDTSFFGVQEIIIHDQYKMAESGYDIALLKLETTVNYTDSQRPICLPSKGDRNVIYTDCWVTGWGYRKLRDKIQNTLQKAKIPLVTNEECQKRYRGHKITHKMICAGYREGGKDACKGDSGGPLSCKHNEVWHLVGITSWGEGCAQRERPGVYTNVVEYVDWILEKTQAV
Chain of purified human Factor XIa (P03951 19-387 partner): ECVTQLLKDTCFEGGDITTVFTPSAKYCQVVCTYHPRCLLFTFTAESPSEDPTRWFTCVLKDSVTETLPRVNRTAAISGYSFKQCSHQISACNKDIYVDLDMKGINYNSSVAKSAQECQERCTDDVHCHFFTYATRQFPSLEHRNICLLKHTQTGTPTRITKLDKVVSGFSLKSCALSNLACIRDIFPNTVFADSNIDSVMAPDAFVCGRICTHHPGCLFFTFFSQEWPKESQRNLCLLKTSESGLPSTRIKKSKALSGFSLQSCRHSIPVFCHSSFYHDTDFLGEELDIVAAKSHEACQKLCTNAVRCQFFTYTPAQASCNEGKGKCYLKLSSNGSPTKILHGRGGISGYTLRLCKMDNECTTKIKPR

Take `CN1CCN(c2cccc3c2CCN(C(=O)c2cc(-c4cccc(Cl)c4)no2)C3C(=O)Nc2ccc(C(=O)O)cc2)CC1` (centres unmarked) [Example 198, 4-(2-(3-(3-chlorophenyl)isoxazole-5-carbonyl)-5-(4-methylpiperazin-1-yl)-1,2,3,4-tetrahydroisoquinoline-1-carboxamido)benzoic acid, 2 TFA salt]: the Ki in assay [1] (setting [3]) was determined as 49.5 nM; in assay [2] (setting [4]), 122 nM.

For `CNC(=O)c1cncc(-c2cccc3c2CCN(C(=O)c2cn(-c4cccc(Cl)c4F)nn2)C3C(=O)Nc2ccc(C(=O)O)cc2)c1` (centres unmarked) [Example 37, 4-(2-(1-(3-chloro-2-fluorophenyl)-1H-1,2,3-triazole-4-carbonyl)-5-(5-(methylcarbamoyl)pyridin-3-yl)-1,2,3,4-tetrahydroisoquinoline-1-carboxamido)benzoic acid, TFA salt], the Ki in assay [1] (setting [3]) was under 5 nM; in assay [2] (setting [4]), 12.9 nM.

`O=C(O)c1ccc(NC(=O)[C@H]2c3cccc(N4CCOCC4)c3CCN2C(=O)c2cnn(-c3cccc(Cl)c3F)c2)cc1` [Example 88, (R)-4-(2-(1-(3-Chloro-2-fluorophenyl)-1H-pyrazole-4-carbonyl)-5-morpholino-1,2,3,4-tetrahydroisoquinoline-1-carboxamido)benzoic acid, TFA salt]: the Ki was 391 nM in assay [1] (setting [3]) and 2080 nM in assay [2] (setting [4]).

Consider `O=C(O)c1ccc(NC(=O)C2c3cccc(-c4cccnc4)c3CCN2C(=O)c2cn(-c3cccc(Cl)c3F)nn2)cc1` (centres unmarked) [Example 33, 4-(2-(1-(3-chloro-2-fluorophenyl)-1H-1,2,3-triazole-4-carbonyl)-5-(pyridin-3-yl)-1,2,3,4-tetrahydroisoquinoline-1-carboxamido)benzoic acid, TFA salt], for which the figures for the Ki in assay [1] (setting [3]) and in assay [2] (setting [4]) were under 5 nM and 9.54 nM, respectively.

For `COC1CCN(c2cccc3c2CCN(C(=O)[C@H]2CC(c4cccc(Cl)c4F)=NO2)[C@H]3C(=O)Nc2cccc(F)c2)CC1` (single isomer, unassigned) [Example 238, TFA salt], the inhibition constant (Ki) in assay [1] was 635 nM; in assay [2] (measured at 37° C. (*)), over 4340 nM.

On to `O=C(Nc1ccc(CO)cc1)C1c2cccc(Br)c2CCN1C(=O)c1cn(-c2cccc(Cl)c2F)nn1` (centres unmarked) [Example 120, 5-Bromo-2-(1-(3-chloro-2-fluorophenyl)-1H-1,2,3-triazole-4-carbonyl)-N-(4-(hydroxymethyl)phenyl)-1,2,3,4-tetrahydroisoquinoline-1-carboxamide], for which the Ki in assay [1] (setting [3]) is 3940 nM; in assay [2] (measured at 37° C. (*)), 517 nM.

Regarding `COC1CCN(c2cccc3c2CCN(C(=O)c2cn(-c4cccc(Cl)c4F)nn2)C3C(=O)Nc2ccc3c(c2)CC(=O)N3)CC1` (centres unmarked) [Example 190, 2-(1-(3-Chloro-2-fluorophenyl)-1H-1,2,3-triazole-4-carbonyl)-5-(4-methoxypiperidin-1-yl)-N-(2-oxoindolin-5-yl)-1,2,3,4-tetrahydroisoquinoline-1-carboxamide, TFA salt], the Ki in assay [1] (setting [3]) was found to be 98.1 nM; in assay [2] (setting [4]), 163 nM.

For the molecule `COC1CCN(c2cccc3c2CCN(C(=O)c2cnn(-c4cccc(Cl)c4F)c2)[C@H]3C(=O)Nc2ccc(C(=O)O)cc2)CC1` [Example 316, (R)-4-(2-(1-(3-chloro-2-fluorophenyl)-1H-pyrazole-4-carbonyl)-5-(4-methoxypiperidin-1-yl)-1,2,3,4-tetrahydroisoquinoline-1-carboxamido)benzoic acid, TFA salt], the figures for the inhibition constant Ki in assay [1] and in assay [2] (setting [4]) were 42.9 nM and 578 nM, respectively.

In the case of `CC(C)(O)C1CCN(c2cccc3c2CCN(C(=O)C2CC(c4cccc(Cl)c4F)=NO2)C3C(=O)Nc2ccc(C(=O)O)cc2)CC1` (centres unmarked) [Example 262, 4-(2-(3-(3-chloro-2-fluorophenyl)-4,5-dihydroisoxazole-5-carbonyl)-5-(4-(2-hydroxypropan-2-yl)piperidin-1-yl)-1,2,3,4-tetrahydroisoquinoline-1-carboxamido)benzoic acid, TFA salt], the figures for the Ki in assay [1] (setting [5]) and in assay [2] (setting [6]) were under 5 nM and 4.36 nM, respectively.

As for `CN(C)C1CCN(c2cccc3c2CCN(C(=O)c2cn(-c4cccc(Cl)c4F)nn2)[C@@H]3C(=O)Nc2ccc(C(N)=O)cc2)CC1` [Example 101, (S)-N-(4-Carbamoylphenyl)-2-(1-(3-chloro-2-fluorophenyl)-1H-1,2,3-triazole-4-carbonyl)-5-(4-(dimethylamino)piperidin-1-yl)-1,2,3,4-tetrahydroisoquinoline-1-carboxamide, bis-TFA salt], the Ki in assay [1] (setting [3]) is under 5 nM; in assay [2] (setting [4]) it was 1.75 nM.

As to `Cn1cc2ccc(-c3cccc4c3CCN(C(=O)c3cn(-c5cccc(Cl)c5F)nn3)C4C(=O)Nc3ccc(C(=O)O)cc3)cc2n1` (centres unmarked) [Example 162, 4-(2-(1-(3-chloro-2-fluorophenyl)-1H-1,2,3-triazole-4-carbonyl)-5-(2-methyl-2H-indazol-6-yl)-1,2,3,4-tetrahydroisoquinoline-1-carboxamido)benzoic acid], the values for the Ki in assay [1] (setting [3]) and in assay [2] (setting [4]) were under 5 nM and 49.9 nM, respectively.

For the molecule `CCOC(=O)c1ccc(NC(=O)C2c3cccc(N4CCC(N5CCCC5)CC4)c3CCN2C(=O)c2cn(-c3cccc(Cl)c3F)nn2)cc1` (centres unmarked) [Example 219, Ethyl 4-(2-(1-(3-chloro-2-fluorophenyl)-1H-1,2,3-triazole-4-carbonyl)-5-(4-(pyrrolidin-1-yl)piperidin-1-yl)-1,2,3,4-tetrahydroisoquinoline-1-carboxamido)benzoate, 2 TFA salt], the values for the Ki in assay [1] (setting [3]) and in assay [2] (setting [4]) were under 5 nM and 1.96 nM, respectively.

Consider `CN(C)CCNC(=O)c1ccc(-c2cccc3c2CCN(C(=O)c2cnn(-c4cccc(Cl)c4F)c2)C3C(=O)Nc2ccc(C(=O)O)cc2)cc1` (centres unmarked) [Example 8, 4-(2-(1-(3-Chloro-2-fluorophenyl)-1H-pyrazole-4-carbonyl)-5-(4-((2-(dimethylamino)ethyl)carbamoyl)phenyl)-1,2,3,4-tetrahydroisoquinoline-1-carboxamido)benzoic acid, TFA salt], for which the Ki was under 5 nM in assay [1] (setting [3]) and 3.37 nM in assay [2] (setting [4]).

Take `CC(C)c1nnc2n1CCN(c1cccc3c1CCN(C(=O)c1cn(-c4cccc(Cl)c4F)nn1)C3C(=O)Nc1ccc(C(=O)O)cc1)C2` (centres unmarked) [Example 64, 4-(2-(1-(3-chloro-2-fluorophenyl)-1H-1,2,3-triazole-4-carbonyl)-5-(3-isopropyl-5,6-dihydro-[1,2,4]triazolo[4,3-a]pyrazin-7(8H)-yl)-1,2,3,4-tetrahydroisoquinoline-1-carboxamido)benzoic acid, TFA salt]: the Ki was under 5 nM in assay [1] (setting [3]) and 4.7 nM in assay [2] (setting [4]).

As to `Nc1cccc2c1CCN(C(=O)c1cn(-c3cccc(Cl)c3F)nn1)C2C(=O)Nc1ccc(C(=O)O)cc1` (centres unmarked) [Example 334, 4-(5-Amino-2-(1-(3-chloro-2-fluorophenyl)-1H-1,2,3-triazole-4-carbonyl)-1,2,3,4-tetrahydroisoquinoline-1-carboxamido)benzoic acid, TFA salt], the values for the Ki in assay [1] (setting [3]) and in assay [2] (setting [4]) were 10.6 nM and 6.26 nM, respectively.

As to `CN(C)C(=O)C1CCN(c2cccc3c2CCN(C(=O)c2cn(-c4cccc(Cl)c4F)cn2)[C@@H]3C(=O)Nc2ccc(C(=O)O)cc2)CC1` (single isomer, unassigned) [Example 63, TFA salt], the Ki is under 5 nM in assay [1] (setting [3]) and 2.71 nM in assay [2] (setting [4]).

Consider `COC1CCN(c2cccc3c2CCN(C(=O)[C@H]2CC(c4cccc(Cl)c4F)=NO2)[C@@H]3C(=O)Nc2ccccc2F)CC1` (single isomer, unassigned) [Example 235, TFA salt], for which the Ki in assay [1] turned out to be 23.2 nM; in assay [2] (measured at 37° C. (*)) it was 478 nM.

With `CN1CCN(c2cccc3c2CCN(C(=O)C2CC(c4cccc(Cl)c4F)=NO2)C3C(=O)Nc2ccc(C(=O)O)cc2)CC1=O` (single isomer, unassigned) [Example 282, 4-(2-(3-(3-chloro-2-fluorophenyl)-4,5-dihydroisoxazole-5-carbonyl)-5-(4-methyl-3-oxopiperazin-1-yl)-1,2,3,4-tetrahydroisoquinoline-1-carboxamido)benzoic acid, TFA salt], the Ki is under 5 nM in assay [1] (setting [5]) and 1.87 nM in assay [2] (setting [6]).

`O=C(NC12CCC(C(=O)O)(CC1)CC2)[C@H]1c2cccc(-c3cncnc3)c2CCN1C(=O)c1cn(-c2cccc(Cl)c2F)nn1` (single isomer, unassigned; enantiomer b) [Example 145, 4-(2-{[1-(3-Chloro-2-fluorophenyl)-1H-1,2,3-triazol-4-yl]carbonyl}-5-(pyrimidin-5-yl)-1,2,3,4-tetrahydroisoquinoline-1-amido)bicyclo[2.2.2]octane-1-carboxylic acid, 1 TFA (enantiomer B)]: the figures for the Ki in assay [1] (setting [3]) and in assay [2] (measured at 37° C. (*)) were 7.87 nM and 252 nM, respectively.

In the case of `CN1CCN(c2cccc3c2CCN(C(=O)c2cn(-c4cccc(Cl)c4F)nn2)C3C(=O)Nc2ccc(C(=O)O)cc2)CC1` (centres unmarked) [Example 211, 4-(2-(1-(3-chloro-2-fluorophenyl)-1H-1,2,3-triazole-4-carbonyl)-5-(4-methylpiperazin-1-yl)-1,2,3,4-tetrahydroisoquinoline-1-carboxamido)benzoic acid, 2 TFA salt], the Ki in assay [1] (setting [3]) was under 5 nM; in assay [2] (setting [4]), 0.52 nM.

For the molecule `CN1CCC2(CCN(c3cccc4c3CCN(C(=O)c3cnn(-c5cccc(Cl)c5F)c3)C4C(=O)Nc3ccc(C(=O)O)cc3)CC2)C1=O` (centres unmarked) [Example 107, 4-(2-(1-(3-Chloro-2-fluorophenyl)-1H-pyrazole-4-carbonyl)-5-(2-methyl-1-oxo-2,8-diazaspiro[4.5]decan-8-yl)-1,2,3,4-tetrahydroisoquinoline-1-carboxamido)benzoic acid, TFA salt], the figures for the Ki in assay [1] (setting [3]) and in assay [2] (setting [4]) were under 5 nM and 12.5 nM, respectively.

`CN1CCN(c2cccc3c2CCN(C(=O)C2CC(c4cccc(Cl)c4F)=NO2)C3C(=O)Nc2ccc(C(=O)O)cc2)CC1=O` (single isomer, unassigned) [Example 281, 4-(2-(3-(3-chloro-2-fluorophenyl)-4,5-dihydroisoxazole-5-carbonyl)-5-(4-methyl-3-oxopiperazin-1-yl)-1,2,3,4-tetrahydroisoquinoline-1-carboxamido)benzoic acid, TFA]: the Ki in assay [1] (read-out: Factor XIa Ki, measured at 25° C., TFA) amounted to 12.8 nM; in assay [2] (measured at 25° C. (no asterisk), TFA), 79 nM.
